Consider 9 compounds from the NIST ThermoML archive (doi:10.1016/j.tca.2010.02.010).

The nature of data set [1]: xn = mol fraction of the nth substance listed. Particulars: 298.15 K, 101 kPa, Liquid, Vibrating tube method.
The conditions of data set [2]: 298.15 K; 101 kPa; Liquid; Vibrating tube method.

What is called mass density is the mass of a sample divided by its volume.

Numbers after ± are expanded uncertainties.

Regarding `CCCCCl` [1-chlorobutane] + CC(C)CO, the mass density in data set [1] (x1 = 0.037) worked out at 801.07 ± 0.3 kg/m3; in data set [1] (x1 = 0.0748) it was 804.35 ± 0.29 kg/m3; in data set [1] (x1 = 0.1521) it was 811.04 ± 0.28 kg/m3; in data set [1] (x1 = 0.2331) it was 817.97 ± 0.27 kg/m3; in data set [1] (x1 = 0.3472), 827.62 ± 0.25 kg/m3; in data set [1] (x1 = 0.4266), 834.27 ± 0.23 kg/m3. For the same compound, the mass density in data set [1] (x1 = 0.4911) came out at 839.59 ± 0.22 kg/m3; in data set [1] (x1 = 0.5817), 847.01 ± 0.21 kg/m3; in data set [1] (x1 = 0.6178), 849.95 ± 0.2 kg/m3; in data set [1] (x1 = 0.6855) it was 855.42 ± 0.19 kg/m3; in data set [1] (x1 = 0.7946), 864.22 ± 0.18 kg/m3; in data set [1] (x1 = 0.8885), 871.78 ± 0.17 kg/m3. Further, the mass density in data set [1] (x1 = 0.9428) is 876.18 ± 0.16 kg/m3; in data set [1] (x1 = 1) it was 880.86 ± 0.15 kg/m3.

Take `CCCCCl` [1-chlorobutane] + CCCCN: the mass density in data set [1] (x1 = 1) was found to be 880.86 ± 0.15 kg/m3.

On to `CC(C)CO` [2-methyl-1-propanol] + CCCCCl, for which the mass density in data set [1] (x2 = 0) is recorded as 797.84 ± 0.31 kg/m3.

On to `CC(C)CO` [2-methyl-1-propanol], for which the mass density in data set [2] is given as 797.84 ± 0.31 kg/m3.

On to `CCCCCl` [1-chlorobutane], for which, in data set [2], the mass density is reported as 880.86 ± 0.15 kg/m3.

For the compound `CCCCN` [1-butanamine], in data set [2], the mass density is on record as 734.65 ± 0.21 kg/m3.

As for `CCCCN` [1-butanamine] + CCCCCl, the mass density in data set [1] (x2 = 0) came out at 734.65 ± 0.21 kg/m3; in data set [1] (x2 = 0.0428), 740.64 ± 0.21 kg/m3; in data set [1] (x2 = 0.0758), 745.29 ± 0.21 kg/m3; in data set [1] (x2 = 0.1564), 756.7 ± 0.2 kg/m3; in data set [1] (x2 = 0.2259), 766.61 ± 0.2 kg/m3; in data set [1] (x2 = 0.3163) it was 779.6 ± 0.19 kg/m3. For the same compound, the mass density is recorded as 788.3 ± 0.19 kg/m3 in data set [1] (x2 = 0.3765); 797.66 ± 0.19 kg/m3 in data set [1] (x2 = 0.4412); 805.59 ± 0.18 kg/m3 in data set [1] (x2 = 0.4959); 817.91 ± 0.18 kg/m3 in data set [1] (x2 = 0.5804); 829.09 ± 0.17 kg/m3 in data set [1] (x2 = 0.6566); 839.52 ± 0.17 kg/m3 in data set [1] (x2 = 0.7272). For the same compound, the mass density in data set [1] (x2 = 0.7794) was found to be 847.26 ± 0.17 kg/m3; in data set [1] (x2 = 0.8465), 857.31 ± 0.16 kg/m3; in data set [1] (x2 = 0.8923) it was 864.25 ± 0.16 kg/m3; in data set [1] (x2 = 0.9437), 872.12 ± 0.16 kg/m3.

`CC(C)CO` [2-methyl-1-propanol] + CCCCN: the mass density in data set [1] (x2 = 0) is reported as 797.84 ± 0.31 kg/m3.

Regarding `CCCCN` [1-butanamine] + CC(C)CO, the mass density stood at 796.16 ± 0.3 kg/m3 in data set [1] (x1 = 0.0482); 794.54 ± 0.29 kg/m3 in data set [1] (x1 = 0.0921); 790.79 ± 0.28 kg/m3 in data set [1] (x1 = 0.1855); 785.62 ± 0.26 kg/m3 in data set [1] (x1 = 0.2961); 781.71 ± 0.25 kg/m3 in data set [1] (x1 = 0.3674); 776.31 ± 0.25 kg/m3 in data set [1] (x1 = 0.4578). Further, the mass density is listed as 773.52 ± 0.24 kg/m3 in data set [1] (x1 = 0.5021); 770.4 ± 0.24 kg/m3 in data set [1] (x1 = 0.5502); 764.59 ± 0.23 kg/m3 in data set [1] (x1 = 0.6313); 757.45 ± 0.22 kg/m3 in data set [1] (x1 = 0.7237); 749.75 ± 0.22 kg/m3 in data set [1] (x1 = 0.8191); 742.18 ± 0.21 kg/m3 in data set [1] (x1 = 0.9098). Further, the mass density is listed as 739.52 ± 0.21 kg/m3 in data set [1] (x1 = 0.9418) and 734.65 ± 0.21 kg/m3 in data set [1] (x1 = 1).
